Experimental data published in the supplement of paper PMC10307832.

Legend:
Test in all cases: relative viability (nuclei count vs DMSO), 5 days (fraction); higher = more cells survive
[1] = compound: CS(=O)(=O)c1ccc(-c2cnc(N)c(C(=O)Nc3ccccc3)n2)cc1 [VE-821] + CC(=O)c1c(C)c2cnc(Nc3ccc(N4CCNCC4)cn3)nc2n(C2CCCC2)c1=O [Palbociclib] (partner 0.5 µM)
In short: (§1)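 One day after seeding in 1536-well plates, lung cancer cell lines were dosed by pin tool. Dosing was either single-drug or a fixed anchor-drug dose plus five library-drug doses (not always all listed) in √10 steps. After 5 days, nuclei were stained in one fix-and-stain step and counted on 4× images, and relative viability is the nuclei count of treated wells over that of vehicle wells, given as the median of duplicate plates.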

[2] = compound: CS(=O)(=O)c1ccc(C(=O)Nc2ccc(Cl)c(-c3ccccn3)c2)c(Cl)c1 [Vismodegib] + N=C(N)NC(=N)NCCc1ccccc1 [Phenformin] (partner 250 µM)
In short: as §1

[3] = compound: N#CC[C@H](C1CCCC1)n1cc(-c2ncnc3[nH]ccc23)cn1 [Ruxolitinib] + N=C(N)NC(=N)NCCc1ccccc1 [Phenformin] (partner 250 µM)
In short: as §1

[4] = compound: CS(=O)(=O)c1ccc(C(=O)Nc2ccc(Cl)c(-c3ccccn3)c2)c(Cl)c1 [Vismodegib] + O=C(c1cc(Cc2n[nH]c(=O)c3ccccc23)ccc1F)N1CCN(C(=O)C2CC2)CC1 [Olaparib] (partner 8 µM)
In short: as §1

Row | Cell Line | relative viability ([1]; first compound 0.08 µM) | relative viability ([1]; first compound 0.253 µM) | relative viability ([1]; first compound 0.8 µM) | relative viability ([1]; first compound 2.53 µM) | relative viability ([1]; first compound 8 µM) | relative viability ([2]; first compound 0.08 µM) | relative viability ([2]; first compound 0.253 µM) | relative viability ([2]; first compound 0.8 µM) | relative viability ([2]; first compound 2.53 µM) | relative viability ([2]; first compound 8 µM) | relative viability ([3]; first compound 0.08 µM) | relative viability ([3]; first compound 0.253 µM) | relative viability ([3]; first compound 0.8 µM) | relative viability ([3]; first compound 2.53 µM) | relative viability ([3]; first compound 8 µM) | relative viability ([4]; first compound 0.08 µM) | relative viability ([4]; first compound 0.253 µM) | relative viability ([4]; first compound 0.8 µM) | relative viability ([4]; first compound 2.53 µM) | relative viability ([4]; first compound 8 µM)
1 | EPLC-272H | 0.342 | 0.313 | 0.295 | 0.33 | 0.326 | 0.348 | 0.313 | 0.316 | 0.271 | 0.264 | 0.297 | 0.323 | 0.306 | 0.278 | 0.269 | 0.839 | 0.69 | 0.674 | 0.783 | 0.837
2 | EMC-BAC-2 | 0.531 | 0.491 | 0.528 | 0.545 | 0.524 | 0.571 | 0.53 | 0.5 | 0.506 | 0.502 | 0.534 | 0.471 | 0.555 | 0.44 | 0.353 | 0.523 | 0.488 | 0.487 | 0.472 | 0.526
3 | PC-3 [JPC-3] | 0.266 | 0.478 | 0.58 | 0.54 | 0.56 | 0.483 | 0.48 | 0.457 | 0.483 | 0.483 | 0.428 | 0.477 | 0.477 | 0.443 | 0.481 | 1.09 | 1.11 | 1.03 | 1.09 | 1.17
4 | NCI-H2342 | 0.503 | 0.557 | 0.528 | 0.521 | 0.494 | 0.632 | 0.612 | 0.581 | 0.475 | 0.529 | 0.55 | 0.484 | 0.662 | 0.55 | 0.613 | 0.402 | 0.421 | 0.418 | 0.52 | 0.406
5 | NCI-H1666 | 0.635 | 0.685 | 0.644 | 0.713 | 0.621 | 0.557 | 0.587 | 0.535 | 0.517 | 0.565 | 0.606 | 0.538 | 0.519 | 0.564 | 0.512 | 0.679 | 0.747 | 0.727 | 0.732 | 0.749
6 | NCI-H1915 | 0.558 | 0.532 | 0.54 | 0.547 | 0.452 | 0.368 | 0.359 | 0.381 | 0.355 | 0.357 | 0.375 | 0.41 | 0.384 | 0.358 | 0.343 | 0.276 | 0.256 | 0.244 | 0.273 | 0.232
7 | HCC-15 | 0.822 | 0.767 | 0.809 | 0.907 | 0.748 | 0.511 | 0.458 | 0.472 | 0.496 | 0.441 | 0.423 | 0.444 | 0.494 | 0.393 | 0.399 | 0.652 | 0.709 | 0.718 | 0.737 | 0.608
8 | EKVX | 0.458 | 0.361 | 0.341 | 0.429 | 0.4 | 0.225 | 0.227 | 0.24 | 0.224 | 0.233 | 0.275 | 0.209 | 0.204 | 0.221 | 0.235 | – | 0.737 | 0.818 | 0.778 | 0.866
9 | NCI-H1792 | 0.725 | 0.698 | 0.664 | 0.762 | 0.66 | – | 0.318 | 0.254 | – | 0.41 | 0.253 | 0.241 | 0.261 | 0.146 | 0.128 | 0.381 | 0.412 | 0.527 | 0.349 | 0.376
10 | PC-14 | 0.648 | 0.46 | 0.455 | 0.351 | 0.169 | 0.658 | 0.444 | 0.567 | 0.512 | 0.602 | – | 0.436 | 0.518 | 0.566 | 0.604 | 0.262 | 0.175 | 0.254 | 0.248 | 0.254
11 | NCI-H650 | 0.365 | 0.341 | 0.331 | 0.438 | 0.352 | 0.469 | 0.417 | 0.45 | 0.418 | 0.393 | – | 0.449 | 0.519 | 0.351 | 0.342 | 0.385 | 0.385 | 0.396 | 0.316 | 0.387
12 | NCI-H1650 | 0.342 | 0.324 | 0.329 | 0.4 | 0.336 | 0.387 | 0.414 | 0.479 | 0.415 | 0.406 | – | 0.315 | 0.455 | 0.388 | 0.331 | 0.896 | 0.633 | 0.763 | 0.794 | 0.746
13 | NCI-H1355 | 0.455 | 0.349 | 0.287 | 0.366 | 0.361 | 0.455 | 0.474 | 0.462 | 0.458 | 0.401 | 0.418 | 0.418 | 0.46 | 0.394 | 0.416 | 0.721 | 0.716 | 0.781 | 0.807 | 0.722
14 | HOP-62 | 0.508 | 0.459 | 0.471 | 0.463 | 0.461 | 0.645 | 0.637 | 0.665 | 0.698 | 0.569 | 0.678 | 0.629 | 0.699 | 0.668 | 0.63 | 0.403 | 0.47 | 0.387 | 0.396 | 0.345
15 | NCI-H3122 | 0.196 | 0.187 | 0.166 | 0.225 | 0.227 | 0.377 | 0.356 | 0.362 | 0.365 | 0.36 | – | 0.429 | 0.378 | 0.327 | 0.318 | 0.613 | 0.598 | 0.614 | 0.664 | 0.65
16 | NCI-H1437 | 0.305 | 0.262 | 0.36 | 0.335 | 0.284 | 0.296 | 0.309 | 0.291 | 0.333 | 0.289 | 0.341 | 0.287 | 0.29 | 0.275 | 0.271 | 0.633 | 0.607 | 0.653 | 0.63 | 0.598
17 | BEN | 0.504 | 0.461 | 0.469 | 0.517 | 0.642 | 0.249 | 0.281 | 0.292 | 0.255 | 0.248 | 0.232 | 0.281 | 0.244 | 0.239 | 0.255 | 1.14 | 1.05 | 0.889 | 1.08 | 1.13
